Experiment: 3,4,3-LI(1,2-HOPO)-excipient compatibility study (visual observation, HPLC purity and impurities on storage)
Type: physicochemical
Settings: for 3L1O Purity / Total Impurities: n = 1
Experimental: The objective of the analytical study described in this report was to evaluate the interactions between 3,4,3-L1(1,2-HOPO) and selected pharmaceutical excipients under 25° C./60% RH and 40° C./75% RH conditions over eight weeks. Physical appearance and potency of the different samples were assessed at T=0, 2, 4, and 8 weeks through visual observations and high performance liquid chromatography (HPLC) analysis.
The stability of 3,4,3-L1(1,2-HOPO) was tested according to the conditions listed below in TABLE 1.1. A11 test samples were stored throughout the study in 40 mL clear USP Type 1 glass vials (28 mm OD×95 mm height; 24 mm screw cap), wrapped in aluminum foil.
• Test Samples: Each test mixture was prepared by weighing the desired quantity of 3,4,3-L1(1,2-HOPO) and excipient (both screened through sieve #40) into vials. Both ingredients were first mixed using a clean glass rod and then vortexed. At each time interval, one vial was withdrawn from each drug-excipient series along with the corresponding placebo preparation and tested as described below.
b. Sample Characterization • Visual Observation: For each sample solution, visual observation consisted in recording color and physical form.
c. Chromatographic Assay and Purity Assessment • Standard Stock Solutions: For each standard stock solutions, the test article was weighed (200 mg) and dissolved by sonication into 30 mL of diluent (water:acetonitrile=90%:10%). After equilibration at room temperature, the volume of the standard solution was adjusted to 50 mL. Standard stock solutions were prepared in duplicates, working standard solutions were prepared by dilution of each stock with the diluent to the desired concentrations. • Calibration Standards: With each experiment, 5 calibration standard solutions at different concentrations were prepared from stock solutions using the diluent. Concentrations of the calibration standards were between 1.6 and 2.4 mg/mL. […] The vials were then mechanically shaken for 15 minutes, followed by centrifugation of the sample solutions (10,000 rpm, 10 min), and the supernatants were used for the assay. • Placebo Preparation: 25 mL of diluent was added to each of the placebo vial. The vials were then mechanically shaken for 15 minutes, followed by centrifugation of the sample solutions (10,000 rpm, 10 min), and the supernatants were used for the assay. Analytical Method: Instrument: Waters Alliance 2695 liquid chromatography system Column: Agilent, Eclipse XDB-C18, 4.6×150 mm, 5 μm. Mobile Phase A: 0.05% formic acid in 95% H2O: 5% ACN Mobile Phase B: 0.05% formic acid in acetonitrile (ACN)
Column Temperature: 25° C. Flow Rate: 1.0 mL/min. Injection Volume: 10 μL Detection: 250 nm Run Time: 50 min Diluent: 9:1 H2O:ACN Analysis Sequence:
• Suitability Requirements: There should be no interference from the diluent/blank at the retention times of 3,4,3-L1(1,2-HOPO) peaks. The relative standard deviation (% RSD) for five replicate system suitability injections should be below 2.0%. The response factor of the second standard should be within 95-105%. The correlation coefficient (R2) of the system linearity standards should be higher than 0.990. 5. Results

O=C(NCCCN(CCCCN(CCCNC(=O)c1cccc(=O)n1O)C(=O)c1cccc(=O)n1O)C(=O)c1cccc(=O)n1O)c1cccc(=O)n1O [3,4,3-L1(1,2-HOPO)]
Unknown Impurity RRT 1.27 (40° C./75% RH, 2 Weeks): 0.36 % w/w | Unknown Impurity RRT 1.3 (40° C./75% RH, 2 Weeks): 0.16 % w/w | Unknown Impurity RRT 1.39 (40° C./75% RH, 2 Weeks): 0.05 % w/w | Unknown Impurity RRT 1.41 (40° C./75% RH, 2 Weeks): 0.01 % w/w | Unknown Impurity RRT 1.46 (40° C./75% RH, 2 Weeks): 0.07 % w/w | Unknown Impurity RRT 2.31 (40° C./75% RH, 2 Weeks): 0.05 % w/w | Unknown Impurity RRT 2.59 (40° C./75% RH, 2 Weeks): 0.04 % w/w | Unknown Impurity RRT 2.8 (40° C./75% RH, 2 Weeks): 0.03 % w/w | 3L1O Purity (40° C./75% RH, 2 Weeks): 98.62 % Area | Total Impurities (40° C./75% RH, 2 Weeks): 1.38 % Area | Unknown Impurity RRT 0.24 (40° C./75% RH, 4 weeks): 0.05 % w/w | Unknown Impurity RRT 0.58 (40° C./75% RH, 4 weeks): 0.09 % w/w | Unknown Impurity RRT 0.6 (40° C./75% RH, 4 weeks): 0.06 % w/w | Unknown Impurity RRT 0.62 (40° C./75% RH, 4 weeks): 0.07 % w/w | Unknown Impurity RRT 0.81 (40° C./75% RH, 4 weeks): 0.02 % w/w | Unknown Impurity RRT 0.87 (40° C./75% RH, 4 weeks): 0.16 % w/w | Unknown Impurity RRT 0.89 (40° C./75% RH, 4 weeks): 0.03 % w/w | Unknown Impurity RRT 1.02 (40° C./75% RH, 4 weeks): 0.03 % w/w | Unknown Impurity RRT 1.11 (40° C./75% RH, 4 weeks): 0.06 % w/w | Unknown Impurity RRT 1.27 (40° C./75% RH, 4 weeks): 0.26 % w/w | Unknown Impurity RRT 1.3 (40° C./75% RH, 4 weeks): 0.2 % w/w | Unknown Impurity RRT 1.39 (40° C./75% RH, 4 weeks): 0.74 % w/w | Unknown Impurity RRT 1.41 (40° C./75% RH, 4 weeks): 0.01 % w/w | Unknown Impurity RRT 1.46 (40° C./75% RH, 4 weeks): 0.08 % w/w | Unknown Impurity RRT 1.72 (40° C./75% RH, 4 weeks): 0.09 % w/w | Unknown Impurity RRT 2.3 (40° C./75% RH, 4 weeks): 0.04 % w/w | Unknown Impurity RRT 2.59 (40° C./75% RH, 4 weeks): 0.03 % w/w | Unknown Impurity RRT 2.79 (40° C./75% RH, 4 weeks): 0.02 % w/w | 3L1O Purity (40° C./75% RH, 4 weeks): 98.63 % Area | Total Impurities (40° C./75% RH, 4 weeks): 1.37 % Area | Unknown Impurity RRT 0.24 (40° C./75% RH, 8 Weeks): 0.34 % w/w | Unknown Impurity RRT 0.58 (40° C./75% RH, 8 Weeks): 0.2 % w/w | Unknown Impurity RRT 0.59 (40° C./75% RH, 8 Weeks): 0.16 % w/w | Unknown Impurity RRT 0.62 (40° C./75% RH, 8 Weeks): 0.18 % w/w | Unknown Impurity RRT 0.81 (40° C./75% RH, 8 Weeks): 0.05 % w/w | Unknown Impurity RRT 0.87 (40° C./75% RH, 8 Weeks): 0.18 % w/w | Unknown Impurity RRT 0.89 (40° C./75% RH, 8 Weeks): 0.32 % w/w | Unknown Impurity RRT 0.91 (40° C./75% RH, 8 Weeks): 0.11 % w/w | Unknown Impurity RRT 0.95 (40° C./75% RH, 8 Weeks): 0.04 % w/w | Unknown Impurity RRT 1.02 (40° C./75% RH, 8 Weeks): 0.09 % w/w | Unknown Impurity RRT 1.12 (40° C./75% RH, 8 Weeks): 0.05 % w/w | Unknown Impurity RRT 1.27 (40° C./75% RH, 8 Weeks): 0.4 % w/w | Unknown Impurity RRT 1.31 (40° C./75% RH, 8 Weeks): 0.01 % w/w | Unknown Impurity RRT 1.39 (40° C./75% RH, 8 Weeks): 0.08 % w/w | Unknown Impurity RRT 1.41 (40° C./75% RH, 8 Weeks): 0 % w/w | Unknown Impurity RRT 1.46 (40° C./75% RH, 8 Weeks): 0.12 % w/w | Unknown Impurity RRT 1.72 (40° C./75% RH, 8 Weeks): 0.1 % w/w | Unknown Impurity RRT 2.31 (40° C./75% RH, 8 Weeks): 0.03 % w/w | Unknown Impurity RRT 2.6 (40° C./75% RH, 8 Weeks): 0.02 % w/w | Unknown Impurity RRT 2.8 (40° C./75% RH, 8 Weeks): 0.02 % w/w | 3L1O Purity (40° C./75% RH, 8 Weeks): 97.49 % Area | Total Impurities (40° C./75% RH, 8 Weeks): 2.51 % Area | Unknown Impurity RRT 0.58 (Initial (T = 0)): 0.05 % w/w | Unknown Impurity RRT 0.59 (Initial (T = 0)): 0.04 % w/w | Unknown Impurity RRT 0.62 (Initial (T = 0)): 0.04 % w/w | Unknown Impurity RRT 0.87 (Initial (T = 0)): 0.1 % w/w | Unknown Impurity RRT 0.89 (Initial (T = 0)): 0.02 % w/w | Unknown Impurity RRT 1.03 (Initial (T = 0)): 0.21 % w/w | Unknown Impurity RRT 1.11 (Initial (T = 0)): 0.04 % w/w | Unknown Impurity RRT 1.27 (Initial (T = 0)): 0.29 % w/w | Unknown Impurity RRT 1.3 (Initial (T = 0)): 0.21 % w/w | Unknown Impurity RRT 1.39 (Initial (T = 0)): 0.09 % w/w | Unknown Impurity RRT 1.41 (Initial (T = 0)): 0.01 % w/w | Unknown Impurity RRT 1.46 (Initial (T = 0)): 0.11 % w/w | Unknown Impurity RRT 2.31 (Initial (T = 0)): 0.05 % w/w | 3L1O Purity (Initial (T = 0)): 98.73 % Area | Total Impurities (Initial (T = 0)): 1.27 % Area

Reference: US11684614B2, “Formulations of hydroxypyridonate actinide/lanthanide decorporation agents” (priority 2017, dated 2023)
